Assay results from ChEMBL document CHEMBL1159075, “The chemical synthesis and antibiotic activity of a diverse library of 2-aminobenzimidazole small molecules against MRSA and multidrug-resistant A. baumannii” (Bioorg Med Chem, 2010).
≈ marks a conversion by molar mass, not a printed value.

How the values were obtained:
Staphylococcus aureus [1] = assay: Antibacterial activity against Staphylococcus aureus ATCC 29213 after 16 to 20 hrs by microdilution susceptibility test; assay type: functional
Acinetobacter baumannii [2] = assay: Antibacterial activity against Acinetobacter baumannii ATCC 19606 after 16 to 20 hrs by microdilution susceptibility test; assay type: functional; conditions: ATCC 19606 = CIP 70.34 = JCM 6841
Acinetobacter baumannii [3] = assay: Antibacterial activity against Acinetobacter baumannii UH8407 after 16 to 20 hrs by microdilution susceptibility test; assay type: functional
Staphylococcus aureus [4] = assay: Antibacterial activity against Staphylococcus aureus ATCC 25923 after 16 to 20 hrs by microdilution susceptibility test; assay type: functional
Staphylococcus aureus [5] = assay: Antibacterial activity against Staphylococcus aureus ATCC 29740 after 16 to 20 hrs by microdilution susceptibility test; assay type: functional
Acinetobacter baumannii [6] = assay: Antibacterial activity against Acinetobacter baumannii AB0043 after 16 to 20 hrs by microdilution susceptibility test; assay type: functional
Acinetobacter baumannii [7] = assay: Antibacterial activity against Acinetobacter baumannii 3304 after 16 to 20 hrs by microdilution susceptibility test; assay type: functional
Staphylococcus aureus [8] = assay: Antibacterial activity against methicillin-resistant Staphylococcus aureus BAA-44 after 16 to 20 hrs by microdilution susceptibility test; assay type: functional
Acinetobacter baumannii [9] = assay: Antibacterial activity against multidrug-resistant Acinetobacter baumannii BAA-1605 after 16 to 20 hrs by microdilution susceptibility test; assay type: functional
[10] = Toxicity in defibrinated sheep RBC assessed as hemolysis at 25 uM by UV spectrometry; assay type: cell-based, Ovis aries, Erythrocyte; conditions: defibrinated sheep red blood cells, read-out: Activity
[11] = Induction of pore-formation in synthetic 1-palmitoyl-2-oleoyl-sn-glycero-3-phosphoglycerol vesicles assessed as dye leakage at >500 uM; assay type: physicochemical
[12] = Induction of pore-formation in synthetic 1-palmitoyl-2-oleoyl-sn-glycero-3-phosphocholine vesicles assessed as dye leakage at 25 uM; assay type: physicochemical
[13] = Induction of pore-formation in synthetic 1-palmitoyl-2-oleoyl-sn-glycero-3-phosphoglycerol vesicles assessed as dye leakage at 25 uM; assay type: physicochemical
Staphylococcus aureus [14] = assay: Antibacterial activity against methicillin-resistant Staphylococcus aureus BAA-44 at […] uM after 16 to 20 hrs by microdilution susceptibility test; assay type: functional
Staphylococcus aureus [15] = assay: Ratio of MBC to MIC for Staphylococcus aureus BAA-44 after 16 to 20 hrs by microdilution susceptibility test

Compound	MIC (Staphylococcus aureus [1]) [µM]	MIC (Acinetobacter baumannii [2]) [µM]	MIC (Acinetobacter baumannii [3]) [µM]	MIC (Staphylococcus aureus [4]) [µM]	MIC (Staphylococcus aureus [5]) [µM]	MIC (Acinetobacter baumannii [6]) [µM]	MIC (Acinetobacter baumannii [7]) [µM]	MIC (Staphylococcus aureus [8]; Staphylococcus aureus, BAA-44) [µM]	MIC (Acinetobacter baumannii [9]) [µM]	other results
CCCCc1ccc(C(=O)Nc2ccc3[nH]c(N)nc3c2)cc1	25 (≈ 7.71 µg/mL)	50 (≈ 15.4 µg/mL)	50 (≈ 15.4 µg/mL)	25 (≈ 7.71 µg/mL)	12.5 (≈ 3.85 µg/mL)	25 (≈ 7.71 µg/mL)	100 (≈ 30.8 µg/mL)	25 (≈ 7.71 µg/mL)	25 (≈ 7.71 µg/mL)	
GENTAMICIN	0.391	100	> 400		6.2	200	> 400		> 400	MIC (Staphylococcus aureus [8]): 200 µM
C[C@@H](O)[C@H]1C(=O)N2C(C(=O)O)=C(SCCNC=N)C[C@H]12 [IMIPENEM ANHYDROUS]		0.391 (≈ 0.117 µg/mL)	3.12 (≈ 0.935 µg/mL)			50 (≈ 15 µg/mL)	200 (≈ 59.9 µg/mL)		50 (≈ 15 µg/mL)	
CN(C)[C@@H]1C(O)=C(C(N)=O)C(=O)[C@@]2(O)C(O)=C3C(=O)c4c(O)cccc4[C@@](C)(O)[C@H]3C[C@@H]12 [TETRACYCLINE]		3.13 (≈ 1.39 µg/mL)	> 400			6.25 (≈ 2.78 µg/mL)	25 (≈ 11.1 µg/mL)		> 400	
NC[C@H]1O[C@H](O[C@H]2[C@H](O)[C@@H](O[C@H]3O[C@H](CO)[C@@H](O)[C@H](N)[C@H]3O)[C@H](N)C[C@@H]2N)[C@H](N)C[C@@H]1O [TOBRAMYCIN]		25 (≈ 11.7 µg/mL)	200 (≈ 93.5 µg/mL)			200 (≈ 93.5 µg/mL)	> 400		6.25 (≈ 2.92 µg/mL)	
[N-]=[N+]=NCCc1ccsc1		> 400	> 400			> 400			> 400	
CCCCCCCCCCCC(=O)Nc1ccc2[nH]c(N)nc2c1	25 (≈ 8.26 µg/mL)	25 (≈ 8.26 µg/mL)	25 (≈ 8.26 µg/mL)	50 (≈ 16.5 µg/mL)	12.5 (≈ 4.13 µg/mL)	12.5 (≈ 4.13 µg/mL)	12.5 (≈ 4.13 µg/mL)	12.5 (≈ 4.13 µg/mL)	12.5 (≈ 4.13 µg/mL)	
CC1(C)S[C@@H]2[C@H](NC(=O)[C@H](N)c3ccccc3)C(=O)N2[C@H]1C(=O)O [AMPICILLIN]		> 400	> 400			> 400	> 400		> 400	
Nc1nc2cc(NS(=O)(=O)c3ccc4ccccc4c3)ccc2[nH]1	100 (≈ 33.8 µg/mL)							100 (≈ 33.8 µg/mL)		
[N-]=[N+]=Nc1ccc(C(=O)Nc2ccc3[nH]c(N)nc3c2)cc1								400 (≈ 117 µg/mL)		
CCCCCCC(=O)Nc1ccc2[nH]c(N)nc2c1		> 400	> 400			400 (≈ 104 µg/mL)	> 400		> 400	
CCCCCc1ccc(C(=O)Nc2ccccc2)cc1		> 400						> 400		
CCCCCCCCCCc1cn(-c2ccc(C(=O)Nc3ccc4[nH]c(N)nc4c3)cc2)nn1								> 400		
CCCCCCCc1ccc(C(=O)Nc2ccc3[nH]c(N)nc3c2)cc1	25 (≈ 8.76 µg/mL)	50 (≈ 17.5 µg/mL)		50 (≈ 17.5 µg/mL)	12.5 (≈ 4.38 µg/mL)	12.5 (≈ 4.38 µg/mL)	50 (≈ 17.5 µg/mL)	25 (≈ 8.76 µg/mL)		
CN[C@@H]1[C@H](O[C@H]2[C@H](O[C@H]3[C@H](O)[C@@H](O)[C@H](N=C(N)N)[C@@H](O)[C@@H]3N=C(N)N)O[C@@H](C)[C@]2(O)C=O)O[C@@H](CO)[C@H](O)[C@H]1O [STREPTOMYCIN]	1.56 (≈ 0.907 µg/mL)				0.391 (≈ 0.227 µg/mL)			> 200		
Nc1nc2cc(NC(=O)c3ccc(-c4ccccc4)cc3)ccc2[nH]1	> 400	> 400		> 400	> 400	> 400	> 400	> 400		
CCCCc1cn(-c2ccc(C(=O)Nc3ccc4[nH]c(N)nc4c3)cc2)nn1								> 400		
CCCCCCc1ccc(C(=O)Nc2ccc3[nH]c(N)nc3c2)cc1	12.5 (≈ 4.21 µg/mL)	50 (≈ 16.8 µg/mL)	25 (≈ 8.41 µg/mL)	12.5 (≈ 4.21 µg/mL)	6.25 (≈ 2.1 µg/mL)	12.5 (≈ 4.21 µg/mL)	50 (≈ 16.8 µg/mL)	12.5 (≈ 4.21 µg/mL)	12.5 (≈ 4.21 µg/mL)	
COc1cccc(OC)c1C(=O)N[C@@H]1C(=O)N2[C@@H]1SC(C)(C)[C@@H]2C(=O)O [METHICILLIN]	3.13 (≈ 1.19 µg/mL)							> 400		
CCCCCc1ccc(-c2c[nH]c(N)n2)cc1								12.5 (≈ 2.87 µg/mL)		
CN[C@H](CC(C)C)C(=O)N[C@H]1C(=O)N[C@@H](CC(N)=O)C(=O)N[C@H]2C(=O)N[C@H]3C(=O)N[C@H](C(=O)N[C@H](C(=O)O)c4cc(O)cc(O)c4-c4cc3ccc4O)[C@H](O)c3ccc(c(Cl)c3)Oc3cc2cc(c3O[C@@H]2O[C@H](CO)[C@@H](O)[C@H](O)[C@H]2O[C@H]2C[C@](C)(N)[C@H](O)[C@H](C)O2)Oc2ccc(cc2Cl)[C@H]1O [VANCOMYCIN]	0.391 (≈ 0.567 µg/mL)			0.391 (≈ 0.567 µg/mL)	0.195 (≈ 0.283 µg/mL)			0.391 (≈ 0.567 µg/mL)		
CC(C)(C)c1ccc(C(=O)Nc2ccc3[nH]c(N)nc3c2)cc1	50 (≈ 15.4 µg/mL)	100 (≈ 30.8 µg/mL)	100 (≈ 30.8 µg/mL)	100 (≈ 30.8 µg/mL)	50 (≈ 15.4 µg/mL)	50 (≈ 15.4 µg/mL)	100 (≈ 30.8 µg/mL)	50 (≈ 15.4 µg/mL)	100 (≈ 30.8 µg/mL)	
Nc1nc2cc(NC(=O)c3ccccc3)ccc2[nH]1										hemolysis at 25 µM [10]: < 1%
O=C(O)c1cn(C2CC2)c2cc(N3CCNCC3)c(F)cc2c1=O [CIPROFLOXACIN]	0.391 (≈ 0.13 µg/mL)				0.391 (≈ 0.13 µg/mL)			12.5 (≈ 4.14 µg/mL)		
CCCCCCCCCC(=O)Nc1ccc2[nH]c(N)nc2c1	12.5 (≈ 3.78 µg/mL)	25 (≈ 7.56 µg/mL)	25 (≈ 7.56 µg/mL)	25 (≈ 7.56 µg/mL)	12.5 (≈ 3.78 µg/mL)	25 (≈ 7.56 µg/mL)	25 (≈ 7.56 µg/mL)	25 (≈ 7.56 µg/mL)	25 (≈ 7.56 µg/mL)	
CCCCCCCCCCCCCCCCCC(=O)Nc1ccc2[nH]c(N)nc2c1		> 400	> 400			> 400	> 400		> 400	
CCCCCc1ccc(C(=O)Nc2ccc3[nH]c(N)nc3c2)cc1.Cl	12.5	25	25	12.5	6.25	12.5	25	12.5	12.5	Activity [11]: > 50%; Activity [12]: 9%; Activity [13]: 16%; hemolysis at 25 µM [10]: < 1%; Activity (Staphylococcus aureus [14]): 99.15%; MBC50 (Staphylococcus aureus [8]): 5.88 µM; MBC90 (Staphylococcus aureus [8]): 11.15 µM; MBC (Staphylococcus aureus [8]; Staphylococcus aureus, BAA-44): 25 µM; Ratio (Staphylococcus aureus [15]): 2
CCCCCCS(=O)(=O)Nc1ccc2[nH]c(N)nc2c1	100 (≈ 29.6 µg/mL)				100 (≈ 29.6 µg/mL)			100 (≈ 29.6 µg/mL)		
